# Like-named read-outs stand apart in the source and are kept apart here.
# Tests used:
# [1] = Permeability study in Caco-2 cell line; format: in vitro ADME; conditions: human; for efflux ratio at 2 h, 5 μM: Caco-2, pH 7.4; for Papp A→B at 2 h, 5 μM: Caco-2, apical to basolateral; for Papp A→B at 2 h, 5 μM / Papp B→A at 2 h, 5 μM: pH 7.4; for Papp B→A at 2 h, 5 μM: Caco-2, basolateral to apical
# Procedure: Caco-2 cell suspensions were dispensed into the inserts of the 96-well HTS Transwell plate and cultivated for 14-18 days. Transepithelial electrical resistance (TEER) across the monolayer was measured using Millicell Epithelial Volt-Ohm measuring system. The Caco-2 plate was then washed twice with pre-warmed HBSS (pH 7.4) and incubated at 37° C. for 30 minutes. To determine the rate of drug transport in the apical to basolateral direction. 5 μM test compound was added to the Transwell insert and the wells in the receiver plate were filled with HBSS (pH 7.4). To determine the rate of drug transport in the basolateral to apical direction, 5 μM test compound was added to the receiver plate wells and then the Transwell inserts were filled with HBSS (pH 7.4). The plates were incubated at 37° C. for 2 hours. 50 μL samples from donor sides and receiver sides were transferred to wells of a new 96-well plate followed by the addition of 4 volume of cold methanol containing internal standards (IS). Samples were centrifuged and the supernatant was used for LC-MS/MS analysis. After the incubation, residue solutions were removed from the Transwell plates, and Lucifer yellow (100 μM) solution was added to each Transwell insert, followed by filling the receiver wells with HBSS. The plates were incubated at 37° C. for 30 minutes. 80 μL samples were removed from the apical and basolateral wells and the fluorescence of Lucifer yellow was measured in a microplate reader with 485 nm excitation and 530 nm emission.
# [2] = PK study following IV and PO administration in male CD1 mice; format: in vivo, mouse; set-up: AUClast/D: unit: (ng*h/mL)/(mg/kg); conditions: for AUClast/D / CIobs / AUC(0-inf) / AUC(0-t) / C0 / half-life / MRT inf / Vd / Cmax / Tmax: plasma, mean of three mice; for CIobs: unit assumed; for F: PO 50 mg/kg versus IV 10 mg/kg; for AUC(0-inf) / AUC(0-t) / C0 / half-life / MRT inf / Vd / Cmax / Tmax: mouse; for MRT inf: read-out: MRTInf—obs; for Vd: read-out: Vss—obs
# Procedure: The objective of this study was to determine the pharmacokinetic (PK) profile of LOX enzyme inhibiting compounds following IV and PO administrations in male CD1 mice.
# Male CDT mice from a qualified provider were used for all studies. Mice were 6-8 weeks old at the time of the experiment (˜20-30 g body weight). All animals for IV & PO administration were fasted overnight and fed after 4 hours collection. The dose formulation was kept at room temperature no more than 2 hours.
# Dose formulations were prepared fresh on the day of dosing and stored at ambient temperature. Dose formulations were as following: […]
# Blood samples were collected from the dorsal metatarsal vein. Circa 0.03 mL were collected per time point and 0.3 mL at final time point via heart puncture. The blood samples were centrifuged at 4000 g for 5 minutes at 4° C. to obtain plasma and samples were immediately frozen in the upright position and stored at −75±15° C. prior to analysis.
# Blood samples were collected at time points outlined in Table 12:
# Acceptable time ranges for blood collection were as following: 5 min and 15 min: within +0.25 minute, 30 min, 1 hour, and 2 hours: within +2 minutes; 4 hours, 6 hours, 8 hours, and 24 hours: within +10 minutes.
# Concentrations of LOX enzyme inhibiting compounds in the plasma were analyzed using a LC-MS/MS method. WinNonlin (Phoenix™, version 8.2) software was used for pharmacokinetic calculations. The following pharmacokinetic parameters were calculated, whenever possible from the plasma concentration versus time data:
# IV administration: T1/2, C0, AUClast, AUCinf, MRTinf, Cl, Vss, Number of Points for Regression.
# PO administration: T1/2, Cmax, Tmax, AUClast, AUCinf and F. Number of Points for Regression.
# The pharmacokinetic data were described using descriptive statistics such as mean, standard deviation.
# Results are outlined in Table 13 (IV), Table 14 (PO) and FIGS. 1-3. Data represent mean values from three mice.
# [3] = Caco-2, pH 7.4, Caco-2, apical to basolateral, read-out: Recovery (%)AP-BL
# [4] = Caco-2, pH 7.4, Caco-2, basolateral to apical, read-out: Recovery (%)BL-AP
SMILES,"efflux ratio at 2 h, 5 μM [1]","recovery at 2 h, 5 μM [1, 3]","recovery at 2 h, 5 μM [1, 4]","Papp A→B at 2 h, 5 μM [1]","Papp B→A at 2 h, 5 μM [1]","AUClast/D ([2]; IV, 10 mg/kg)","CIobs ([2]; IV, 10 mg/kg)",F [2],"AUClast/D ([2]; PO, 50 mg/kg)","AUC(0-inf) ([2]; IV, 10 mg/kg)","AUC(0-t) ([2]; IV, 10 mg/kg)","C0 ([2]; IV, 10 mg/kg)","half-life ([2]; IV, 10 mg/kg)","MRT inf ([2]; IV, 10 mg/kg)","Vd ([2]; IV, 10 mg/kg)","AUC(0-inf) ([2]; PO, 50 mg/kg)","AUC(0-t) ([2]; PO, 50 mg/kg)","Cmax ([2]; PO, 50 mg/kg)","Tmax ([2]; PO, 50 mg/kg)","half-life ([2]; PO, 50 mg/kg)",other results
"CS(=O)(=O)[C@H]1C[C@@H](S(=O)(=O)c2cccc(CN)c2)CN(c2ccccc2)C1 (racemic) [Example 23, cis-(3-((-5-(Methylsulfonyl)-1-phenylpiperidin-3-yl)sulfonyl)phenyl)methanamine]",61.4,86.5%,103%,0.38 ×10⁻⁶ cm/s,23.3 ×10⁻⁶ cm/s,,,,,,,,,,,,,,,,
"CN(C)C(=O)N1C[C@@H](c2ccccc2)C[C@@H](S(=O)(=O)c2cccc(CN)c2)C1.O=C(O)C(F)(F)F (racemic) [Example 74, cis-3-((3-(Aminomethyl)phenyl)sulfonyl)-N,N-dimethyl-5-phenylpiperidine-1-carboxamide 2,2,2-trifluoroacetate]",47.1,77.4%,90.8%,0.71 ×10⁻⁶ cm/s,33.3 ×10⁻⁶ cm/s,196,85.5 mL/min/kg,90,138,1970 ng·h/mL,1960 ng·h/mL,3590 ng/mL,53.4 min,41.5 min,3.55 L/kg,8860 ng·h/mL,8850 ng·h/mL,5550 ng/mL,25 min,49.3 min,"MRT inf ([2]; PO, 50 mg/kg): 74.4 min"
"CS(=O)(=O)N1CCN(C(=O)[C@H]2C[C@@H](c3ccccc3F)CN(S(=O)(=O)c3ccc(CN)s3)C2)CC1.O=C(O)C(F)(F)F (racemic) [Example 91, cis-(1-((5-(Aminomethyl)thiophen-2-yl)sulfonyl)-5-(2-fluorophenyl)piperidin-3-yl)(4-(methylsulfonyl)piperazin-1-yl)methanone 2,2,2-trifluoroacetate]",138,68.6%,78.2%,0.11 ×10⁻⁶ cm/s,15.6 ×10⁻⁶ cm/s,,,,,,,,,,,,,,,,
"NCc1ccnc(S(=O)(=O)N2C[C@@H](C(=O)N3CCS(=O)(=O)CC3)C[C@@H](C3CCCCC3)C2)c1.O=C(O)C(F)(F)F (racemic) [Example 146, cis-(1-((4-(Aminomethyl)pyridin-2-yl)sulfonyl)-5-cyclohexylpiperidin-3-yl)(1,1-dioxidothiomorpholino)methanone 2,2,2-trifluoroacetate]",,,,,,164,103 mL/min/kg,7.2,11.3,1650 ng·h/mL,1640 ng·h/mL,6150 ng/mL,287 min,51 min,5.12 L/kg,590 ng·h/mL,563 ng·h/mL,503 ng/mL,15 min,337 min,"MRT inf ([2]; PO, 50 mg/kg): 221 min"

# Further lines, with some results ahead:
"efflux ratio at 2 h, 5 μM [1]","recovery at 2 h, 5 μM [1, 3]","recovery at 2 h, 5 μM [1, 4]","Papp A→B at 2 h, 5 μM [1]","Papp B→A at 2 h, 5 μM [1]","AUClast/D ([2]; IV, 10 mg/kg)","CIobs ([2]; IV, 10 mg/kg)",F [2],"AUClast/D ([2]; PO, 50 mg/kg)","AUC(0-inf) ([2]; IV, 10 mg/kg)","AUC(0-t) ([2]; IV, 10 mg/kg)","C0 ([2]; IV, 10 mg/kg)","half-life ([2]; IV, 10 mg/kg)","MRT inf ([2]; IV, 10 mg/kg)","Vd ([2]; IV, 10 mg/kg)","AUC(0-inf) ([2]; PO, 50 mg/kg)","AUC(0-t) ([2]; PO, 50 mg/kg)","Cmax ([2]; PO, 50 mg/kg)","Tmax ([2]; PO, 50 mg/kg)","half-life ([2]; PO, 50 mg/kg)",SMILES,other results
30.1,72.1%,83.5%,0.4 ×10⁻⁶ cm/s,12.1 ×10⁻⁶ cm/s,,,,,,,,,,,,,,,,"NCc1ccc(S(=O)(=O)N2C[C@H](C(=O)N3CCS(=O)(=O)CC3)C[C@@H](c3ccccc3)C2)s1.O=C(O)C(F)(F)F (racemic) [Example 75B, trans-(1-((5-(Aminomethyl)thiophen-2-yl)sulfonyl)-5-phenylpiperidin-3-yl)(1,1-dioxidothiomorpholino)methanone 2,2,2-trifluoroacetate]",
24.5,76.8%,78.8%,1.16 ×10⁻⁶ cm/s,28.5 ×10⁻⁶ cm/s,,,,,,,,,,,,,,,,"NCc1ccc(S(=O)(=O)N2C[C@H](C(=O)N3CCOCC3)C[C@H](c3ccccc3)C2)s1 [Example 13B, ((3R,5R)-1-((5-(aminomethyl)thiophen-2-yl)sulfonyl)-5-phenylpiperidin-3-yl)(morpholino)methanone]",

# From US20230310445A1, “LOX ENZYME INHIBITING METHODS AND COMPOSITIONS” (ANOVIA BIOSCIENCES, INC., priority 2020, published 2023)
